Measured values reported in patent US9695155B2, “Herbicidal substituted pyrimidinyloxy benzene compounds” (E. I. DU PONT DE NEMOURS AND COMPANY, priority 2013, dated 2017).

Experiments:
[1] = tested on: soybean; assay: Test C postemergence; assay type: in vivo, Glycine max
Summary of the method: (§1)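 Visual injury score versus untreated controls, 0 = no effect, 100 = complete control, taken 13 to 15 days after treatment in the greenhouse. Pre-emergence pots held loam/sand; post-emergence plants grew in sphagnum peat/vermiculite mix and were sprayed at the 1- to 4-leaf stage.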

[2] = tested on: barnyardgrass; assay: Test C preemergence; assay type: in vivo, Echinochloa crus-galli; conditions: for Barnyardgrass plant response rating: preemergence
Summary of the method: as §1

[3] = tested on: wheat; assay: Test A postemergence; assay type: in vivo, Triticum aestivum; conditions: 1000 g ai/ha, 0 to 100 scale, 0 no effect, 100 complete control
Summary of the method: (§2)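 Visual injury scored 0–100 (100 = complete control) against untreated controls about 10 days after treatment in a greenhouse. Test chemicals, formulated with surfactant in non-phytotoxic solvent, were sprayed on soil preemergence or on 2-10 cm, one- to two-leaf plants postemergence.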

[4] = tested on: soybean; assay: Test C preemergence; assay type: in vivo, Glycine max; conditions: preemergence
Summary of the method: as §1

[5] = tested on: large (Lg) crabgrass; assay: Test C preemergence; assay type: in vivo, Digitaria sanguinalis; conditions: for Crabgrass, Large plant response rating: preemergence
Summary of the method: as §1

[6] = tested on: blackgrass; assay: Test C postemergence; assay type: in vivo, Alopecurus myosuroides
Summary of the method: as §1

[7] = tested on: ragweed; assay: Test C postemergence; assay type: in vivo, Ambrosia elatior
Summary of the method: as §1

[8] = tested on: barnyardgrass; assay: Test A preemergence; assay type: in vivo, Echinochloa crus-galli; conditions: 1000 g ai/ha, 0 to 100 scale, 0 no effect, 100 complete control, approx. 10 days
Summary of the method: as §2

[9] = tested on: rice; assay: Test B flooded paddy test; assay type: in vivo, Oryza sativa; conditions: Flood, 250 g ai/ha; 0 to 100 scale where 0 is no effect and 100 is complete control
Summary of the method: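 2-leaf stage plants; pots flooded to 3 cm, compound added to paddy water, depth maintained. Greenhouse 13–15 d. Visual rating vs untreated controls, 0 (no effect) to 100 (complete control); dash = no result.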

[10] = tested on: blackgrass; assay: Test C preemergence; assay type: in vivo, Alopecurus myosuroides; conditions: for Blackgrass plant response rating: preemergence
Summary of the method: as §1

[11] = tested on: giant foxtail; assay: Test C postemergence; assay type: in vivo, Setaria faberii
Summary of the method: as §1

[12] = tested on: wheat, winter; assay: Test C preemergence; assay type: in vivo, Triticum aestivum; conditions: preemergence
Summary of the method: as §1

[13] = tested on: oilseed rape; assay: Test C postemergence; assay type: in vivo, Brassica napus
Summary of the method: as §1

[14] = 16 g ai/ha, postemergence, 0 is no effect, 100 is complete control
[15] = 31 g ai/ha, postemergence, visual rating, scale 0 to 100 (0 no effect, 100 complete control), 13 to 15 days
[16] = 125 g ai/ha, postemergence, visual rating, scale 0 to 100 (0 no effect, 100 complete control)
[17] = Postemergence, 62 g ai/ha, scale 0 to 100 (0 no effect, 100 complete control)
[18] = 16 g ai/ha, scale 0 to 100 (0 no effect, 100 complete control)
[19] = 62 g ai/ha, scale 0 (no effect) to 100 (complete control)
[20] = 125 g ai/ha, scale 0 (no effect) to 100 (complete control)
[21] = Preemergence, 31 g ai/ha, scale 0 to 100, 0 no effect, 100 complete control

SMILES: FCc1cn(-c2c(F)cccc2Oc2ncc(Cl)cn2)nn1 [Compound 154]
- Plant response rating (0 to 100), Soybean [1, 14]: 40
- Soybean plant response rating [1, 15]: 65
- Plant response rating, Soybean [1, 16]: 75
- Plant response rating, Soybean [1, 17]: 65
- Barnyardgrass plant response rating [2, 18]: 5
- Barnyardgrass plant response rating [2, 19]: 70
- Barnyardgrass plant response rating [2, 20]: 100
- Plant response rating, Barnyardgrass [2, 21]: 25
- Plant response rating, Wheat [3]: 80
- Soybean plant response rating [4, 18]: 50
- Soybean plant response rating [4, 19]: 80
- Soybean plant response rating [4, 20]: 95
- Crabgrass, Large plant response rating [5, 18]: 75
- Crabgrass, Large plant response rating [5, 19]: 100
- Crabgrass, Large plant response rating [5, 20]: 100
- Plant response rating, Crabgrass, Large [5, 21]: 90
- Plant response rating (0 to 100), Blackgrass [6, 14]: 0
- Blackgrass plant response rating [6, 15]: 0
- Plant response rating, Blackgrass [6, 16]: 0
- Plant response rating, Blackgrass [6, 17]: 0
- Plant response rating (0 to 100), Ragweed [7, 14]: 35
- Ragweed plant response rating [7, 15]: 45
- Plant response rating, Ragweed [7, 16]: 90
- Plant response rating, Ragweed [7, 17]: 100
- Barnyardgrass plant response rating [8]: 100
- Plant response rating, Rice [9]: 10
- Blackgrass plant response rating [10, 18]: 0
- Blackgrass plant response rating [10, 19]: 20
- Blackgrass plant response rating [10, 20]: 90
- Plant response rating, Blackgrass [10, 21]: 10
- Plant response rating (0 to 100), Foxtail, Giant [11, 14]: 5
- Foxtail, Giant plant response rating [11, 15]: 10
- Plant response rating, Foxtail, Giant [11, 16]: 15
- Plant response rating, Foxtail, Giant [11, 17]: 5
- Wheat plant response rating [12, 18]: 0
- Wheat plant response rating [12, 19]: 0
- Wheat plant response rating [12, 20]: 5
- Plant response rating (0 to 100), Oilseed Rape [13, 14]: 40
- Oilseed Rape plant response rating [13, 15]: 50
- Plant response rating, Oilseed Rape [13, 16]: 80
- Plant response rating, Oilseed Rape [13, 17]: 50
